Reference: US20250041311A1, “Compound For Treating or Preventing Vimentin-Mediated Diseases” (Aluda Pharmaceuticals, Inc., priority 2021, published 2025)
“Also recorded” adds a separate entry of the source. Like-named read-outs stand apart in the source and are kept apart here.

Tests used:
[1] = tested on: Pseudovirus-2019-nCoV
[2] = tested on: PANC-1 cells; test: Transwell cell invasive growth assay; type: cell-based, human; settings: different concentrations of C52, 24 h; more pronounced than in A549
Experimental: (§1) Cell invasive growth assay: Inoculate 1×10E4 cells suspended in 100 μL serum-free RPMI-1640 medium into each upper chamber of a […] Transwell pre-coated with Matrigel and added with DMSO or […] (Cat.3422, Corning, NY, USA). in different concentrations. Add 600 μL of RPMI-1640 containing 10% FBS to the bottom chamber of each well. Cells in transwell plates were cultured for 24 h. Cells on the upper surface were gently wiped with a moistened cotton swab, while cells that passed through the Matrigel to the lower surface of the membrane were fixed with paraformaldehyde and stained with 0.1% crystal violet. These cells on the lower surface were considered invasive and counted in 5 random fields under an inverted microscope. The number of invasive cells was counted by Image J software.

[3] = tested on: A549 cells; test: Transwell cell invasive growth assay; type: cell-based, human; settings: different concentrations of C52, 24 h
Experimental: as §1

[4] = tested on: PANC-1 cells; test: Exosome release from pancreatic cancer cells (NTA, Western blot); type: cell-based, human
Experimental: (§2) Human non-small cell lung cancer A549 cells and human pancreatic cancer PANC-1 cells were purchased from the Chinese Academy of Sciences Stem Cell Bank (Shanghai, China). […] Purification, characterization, and analysis of exosomes: To purify exosomes from cell culture supernatants, cells were cultured for 3 days in DMEM medium supplemented with 10% exosome-free FBS prepared by ultracentrifugation of regular FBS at 120,000 g for 16 h. Cell culture supernatants were collected and centrifuged at 500 g for 5 min and then at 2,000 g for 20 min to remove dead cells and cell debris. Then, large vesicles were removed by centrifugation at 12,000 g for 30 minutes. Crude exosomes were pelleted by ultracentrifugation of the supernatant at 110,000 g for 70 min (Backman Ti70), washed with PBS and filtered (0.2 μm). The pellet was then suspended and ultracentrifuged again at 110,000 g for 70 minutes. All ultracentrifugations were performed at 4° C. The size and number of exosomes were analyzed using an LM10 nanoparticle tracking system (NanoSight) equipped with a blue laser (405 nm). Transmission electron microscope (TEM) observation: The morphology of exosomes prepared from the culture supernatant was observed by transmission electron microscope (TEM). Exosome pellets were fixed overnight at 4° C. in 2% glutaraldehyde. Load a drop of 10 μL of the exosome suspension onto the Formvar/Carbon-coated TEM copper grid and let it stand for 20 min. Drain excess fluid. Samples were fixed with 1% uranyl acetate for 5 min, washed 8 times with double distilled water, and dried under incandescent lamp for 10 min, then examined with Tecnai G2 Spirit Bio TWIN transmission electron microscope (FEI, Hillsboro, USA, working voltage 120 kV). […] The lysate was centrifuged to remove insoluble material.

[5] = tested on: 84 selected human cancer-associated proteins in PANC-1 cells; settings: 3 μM C52 or 5 μM C52 for 48 h
Experimental: (§3) Cell culture: Human non-small cell lung cancer A549 cells, human pancreatic cancer PANC-1 cells, human glioma U87 cells, human liver cancer HUH7 cells and SMMC-7721 cells, and human gastric cancer AGS cells were purchased from ATCC or Stem Cell Bank of Chinese Academy of Sciences (Shanghai, China). Cells were cultured in RPMI1640 medium containing 10% fetal bovine serum (Sigma, USA), 100 U penicillin and 100 μg/ml streptomycin (Gibco, USA) at 37° C. in a humidified atmosphere containing 5% CO2.
(§4) A total of 200 g of lysate protein was run on one Human XL Tumor Array (R&D Systems, Abingdon, UK). Followed the manufacturer's instructions exactly. The protein chip membrane was covered with plastic film and exposed to X-ray film for 8 minutes. Optical density on exposed X-ray film (hu.q, HQ-320XT, China) was quantified using a transmission mode scanner (EPSON, Beijing, China) and analyzed using Image J software.

[6] = tested on: U87 cells
Experimental: Western blotting: Exosomes from cultures in different conditions were collected and purified by a classical differential centrifugation protocol, and then lysed with PMSF-containing RIPA buffer (Beyond Biotechnology, Shanghai, China). The lysate was centrifuged to remove insoluble material. The concentration of protein was determined by enhanced BCA protein assay kit (Beyontian Biotechnology, Shanghai, China). 40 g of proteins were separated by sodium dodecyl sulfate-polyacrylamide gel electrophoresis (SDS-PAGE) and transferred to a polyvinylidene difluoride membrane (Merck Millipore). Membranes were blocked with 5% milk for 1 h and then incubated with primary antibodies overnight at 4° C. Membranes were washed 3 times and then incubated with secondary antibodies for 1 h at room temperature. Bands were detected by Gel Imaging System (Bio-Rad, USA) and measured by Image J. The primary antibodies used were rabbit anti-β-actin, GAPHD, CD63, CD9, TSG101 and vimentin (Abcam, UK).

[7] = tested on: A549, AGS, U87, SMMC-7721, HUH7; test: Cancer cell growth in vitro; type: cell-based, human; settings: any concentration, highest 10 μM
Experimental: as §3

[8] = tested on: HEK293T cells; test: Liposome-mediated pMAX-GFP transfection (endocytosis and endosomal trafficking); type: cell-based
[9] = tested on: DSS-induced colitis mice; test: DSS-induced colitis mouse model; type: in vivo; settings: 3 mg/kg C52 intragastric, 14 days
Experimental: Male BALB/c mice aged 6 to 7 weeks were given 2.8% DSS (Yisheng Biotechnology Co., Ltd., Shanghai) to induce ulcerative colitis through drinking water, and the model was established continuously for 7 days. From the first day of modeling, 3 mg/kg of […] or 300 mg/kg of the positive drug mesalamine (5'-aminosalicylic acid, 5-ASA) was given by intragastric administration, and continued after the modeling 7 days. The model group was given the same volume of solvent every day. The normal control group was fed routinely without any treatment. From the first day of modeling, the animals in each group were weighed every day, and the health condition of the mice, appearance of feces and hematochezia were recorded. When the body weight of the mice lost more than 25% during the modeling process, the animals were euthanized in time. After 14 days of administration of […], mice in each group were sacrificed by vertebral dislocation. The colon was harvested, photographed and its length measured. The colon near the rectum was cut and stored in 4% paraformaldehyde ([…] Biotechnology Co., Ltd., Wuhan) for HE staining to observe the histopathological changes of the colon. Mesenteric lymph nodes were collected for flow cytometric detection of the proportion of Treg cells.

[10] = tested on: EAE mice; test: MOG-induced experimental autoimmune encephalomyelitis (EAE) mouse model; type: in vivo
[11] = tested on: A549 cells; test: Exosome release from lung cancer cells (NTA, Western blot); type: cell-based, human
Experimental: as §2

[12] = tested on: Huh7-NC12 cells; test: PrestoBlue cell viability of liver cancer cells
[13] = tested on: 84 selected human cancer-associated proteins in A549 cells; settings: 3 μM C52 or 5 μM C52 for 48 h
Experimental: as §3, §4

[14] = Western blot, 0.1, 1 and 10 μM C52, 48 h
[15] = Western blot, 0.1, 1 and 10 μM C52, 48 h, extracellular
[16] = C52 low and medium doses (10 or 30 mg/kg), oral once a day, vs vehicle

Structure (SMILES): O=C(Nc1ccc(F)cc1)Nc1ccc(Nc2nc(/C=C/c3ccccc3)nc(N3CCOCC3)n2)cc1 [Compound C52]
- inhibition of GFP signal increase [1]: as strong as that by the positive control
- IC50 ([1]; read-out: IC50 of inhibition of pseudovirus infection): < 50 nM
- migratory ability (Transwell) [2]: hindered the migratory ability
- migratory ability (Transwell) [3]: hindered the migratory ability
- exosomes in culture supernatant (nanoparticle tracking analysis) ([4]; 1 μM C52 vs DMSO): significantly reduced
- intracellular exosome levels [4, 14]: did not reduce
- content of exosomal markers (CD9, CD63, TSG101) in prepared exosome samples [4, 15]: significant reduction
- effect on protein levels of vimentin and other signaling molecules involved in cell proliferation [5]: little or no effect
- amount of exosomal markers CD9 and CD63 inside the cells [6]: did not reduce
- extracellular levels of exosomal markers CD9 and CD63 [6]: reduced
- CD9 in the cell culture medium ([6]; vimentin-knockdown U87 Vim+/- cells, 2 μM C52, 72 h): further reduction
- effect on the growth of cancer cells [7]: no effect
- inhibition of GFP expression (maximum) ([8]; C52 added 4 h after transfection, at 0.316 μM): approximately 40%
- EC50 ([8]; C52 after transfection, read-out: EC50 for inhibition of endosomal trafficking): 82 nM
- EC50 ([8]; C52 before transfection, read-out: EC50 for inhibition of endocytosis): 98 nM
- EC50 ([8]; C52 during entire transfection period, read-out: EC50 for inhibition of the whole process): 45 nM
- inhibition of GFP ([8]; C52 just before transfection only, at 0.316 μM): approximately 15%
- inhibition of GFP (maximum) ([8]; C52 just before transfection only, at 10 μM): approximately 40%
- maximum inhibition rate of GFP expression ([8]; C52 present throughout the transfection, at 0.316 μM): about 50%
- disease activity index ([9]; vs vehicle): decreased
- histological score ([9]; vs vehicle): very significant reduction
- intestinal bleeding ([9]; vs vehicle): reduced
- shortened colon length ([9]; vs vehicle): marked improvement
- weight loss ([9]; vs vehicle): significantly less
- ratio of Treg to CD4+ T cells in the mesenteric lymph nodes ([9]; vs vehicle control): significantly higher
- animal weight loss [10, 16]: less weight loss; also recorded: reduced
- clinical disease scores [10, 16]: lower; also recorded: improved
- disease onset [10, 16]: relatively delayed
- therapeutic effect in EAE ([10]; mouse, in vivo, po, 100 mg/kg): no therapeutic effect
- exosomes in culture supernatant (nanoparticle tracking analysis) ([11]; 1 μM C52 vs DMSO): significantly reduced
- intracellular exosome levels [11, 14]: did not reduce
- content of exosomal markers (CD9, CD63, TSG101) in prepared exosome samples [11, 15]: significant reduction
- cytotoxicity ([12]; 48 h, highest concentration 10,000 nM, high concentrations 3,160 and 10,000 nM): not cytotoxic
- survival rate ([12]; after two days of treatment): about 90%
- toxicity to Huh7-NC12 cells ([12]; high concentrations (>3160 nM)): not toxic
- effect on protein levels of vimentin and other signaling molecules involved in cell proliferation [13]: little or no effect
